Where a name gives a salt, the structure may show the parent alone. Read-outs that look alike come from different tables or passages of the source.
System: PC-3-KQ cells
Assay: 3D spheroid invasion assay and screening of FDA-approved drugs
Type: cell-based, human
Conditions: for activity at 0.01 µM / activity at 0.1 µM / activity at 1 µM / activity at 10 µM: 72 h; for activity at 0.01 µM / activity at 0.1 µM / activity at 1 µM / activity at 10 µM / Invasion rates (%) of each drug’s multiple concentrations (μM): compared to vehicle control
Summary of the method: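 Cells were clustered into spheroids by centrifugation and grown 3 days, then embedded in matrigel-medium containing drug on day 4 and cultured another 3 days. Drugs were screened at 10 μM first, then at 0–10 μM, in duplicate wells. Invasion area is total area minus core sphere area from phase-contrast images.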

[1] = Homo sapiens, 0.01 μM (first column so headed), secondary screening of 87 hit compounds (Table S1), read-out: Invasion rates (%) of each drug’s multiple concentrations
[2] = Homo sapiens, 0.01 μM (second column so headed), secondary screening of 87 hit compounds (Table S1), read-out: Invasion rates (%) of each drug’s multiple concentrations
[3] = Homo sapiens, 0.1 μM, secondary screening of 87 hit compounds (Table S1), read-out: Invasion rates (%) of each drug’s multiple concentrations
[4] = Homo sapiens, 1 μM, secondary screening of 87 hit compounds (Table S1), read-out: Invasion rates (%) of each drug’s multiple concentrations
[5] = Homo sapiens, 10 μM, secondary screening of 87 hit compounds (Table S1), read-out: Invasion rates (%) of each drug’s multiple concentrations
[6] = Homo sapiens, 0.01 μM (first column so headed), third screening of 25 hit compounds (Table S2), read-out: Invasion rates (%) of each drug’s multiple concentrations
[7] = Homo sapiens, 0.01 μM (second column so headed), third screening of 25 hit compounds (Table S2), read-out: Invasion rates (%) of each drug’s multiple concentrations
[8] = Homo sapiens, 0.1 μM, third screening of 25 hit compounds (Table S2), read-out: Invasion rates (%) of each drug’s multiple concentrations
[9] = Homo sapiens, 1 μM, third screening of 25 hit compounds (Table S2), read-out: Invasion rates (%) of each drug’s multiple concentrations
[10] = Homo sapiens, 10 μM, third screening of 25 hit compounds (Table S2), read-out: Invasion rates (%) of each drug’s multiple concentrations
[11] = 0.01 μM (first column so headed), secondary screening of 87 hit compounds (Table S1)
[12] = 0.01 μM (second column so headed), secondary screening of 87 hit compounds (Table S1)
[13] = 0.1 μM, secondary screening of 87 hit compounds (Table S1)
[14] = 1 μM, secondary screening of 87 hit compounds (Table S1)
[15] = 10 μM, secondary screening of 87 hit compounds (Table S1)
[16] = 0.01 μM (first column so headed), third screening of 25 hit compounds (Table S2)
[17] = 0.01 μM (second column so headed), third screening of 25 hit compounds (Table S2)
[18] = 0.1 μM, third screening of 25 hit compounds (Table S2)
[19] = 1 μM, third screening of 25 hit compounds (Table S2)
[20] = 10 μM, third screening of 25 hit compounds (Table S2)

| Structure (SMILES) | activity at 0.01 µM [1] [%] | activity at 0.01 µM [2] [%] | activity at 0.1 µM [3] [%] | activity at 1 µM [4] [%] | activity at 10 µM [5] [%] | further results |
| --- | --- | --- | --- | --- | --- | --- |
| COc1ccc2c(O[C@@H]3C[C@H]4C(=O)N[C@]5(C(=O)NS(=O)(=O)C6CC6)C[C@H]5/C=C\CCCCN(C)C(=O)[C@@H]4C3)cc(-c3nc(C(C)C)cs3)nc2c1C [Simeprevir] | 98.5 | 101 | 97.2 | 96.2 | 38.8 |  |
| CC(C)C[C@H](NC(=O)CNC(=O)c1cc(Cl)ccc1Cl)B1OC(=O)C(CC(=O)O)(CC(=O)O)O1 [Ixazomib citrate] | 69.8 | 81.3 | 26.9 | 1.95 | 1.55 | activity at 0.01 µM [6]: 100%; activity at 0.01 µM [7]: 96.7%; activity at 0.1 µM [8]: 91.4%; activity at 1 µM [9]: 54.2%; activity at 10 µM [10]: 0.4% |
| Cc1ncc([N+](=O)[O-])n1CC(O)CCl (stereo not shown) [Ornidazole (Levo-)] |  |  |  |  |  | Invasion rates (%) of each drug’s multiple concentrations (μM) [11]: 90.43%; Invasion rates (%) of each drug’s multiple concentrations (μM) [12]: 93.59%; Invasion rates (%) of each drug’s multiple concentrations (μM) [13]: 87.04%; Invasion rates (%) of each drug’s multiple concentrations (μM) [14]: 71.01%; Invasion rates (%) of each drug’s multiple concentrations (μM) [15]: 4.84% |
| CC(=O)O[C@H]1C[C@@]2(C)[C@@H](C[C@@H](O)[C@H]3[C@@]4(C)CC[C@@H](O)[C@@H](C)[C@@H]4CC[C@@]32C)/C1=C(\CCC=C(C)C)C(=O)[O-].[Na+] [Fusidic acid (sodium salt)] |  |  |  |  |  | Invasion rates (%) of each drug’s multiple concentrations (μM) [11]: 92.69%; Invasion rates (%) of each drug’s multiple concentrations (μM) [12]: 89.70%; Invasion rates (%) of each drug’s multiple concentrations (μM) [13]: 87.85%; Invasion rates (%) of each drug’s multiple concentrations (μM) [14]: 68.14%; Invasion rates (%) of each drug’s multiple concentrations (μM) [15]: 0.70% |
| CC/C(=C(\c1ccccc1)c1ccc(OCCN(C)C)cc1)c1ccccc1 [Tamoxifen] | 96.2 | 95.4 | 97 | 91.1 | 24.3 |  |
| N[C@@H](Cc1cc(I)c(Oc2ccc(O)c(I)c2)c(I)c1)C(=O)O [Liothyronine] | 93.5 | 97.4 | 93.3 | 92.5 | 50.6 |  |
| Cc1ncc([N+](=O)[O-])n1CC(O)CN1CCOCC1 (stereo not shown) [Morinidazole] | 83.3 | 89.7 | 75.5 | 60 | 4 |  |
| CC[C@@]1(O)C(=O)OCc2c1cc1n(c2=O)Cc2cc3cc(O)ccc3nc2-1 [(S)-10-Hydroxycamptothecin] |  |  |  |  |  | activity at 0.01 µM (Homo sapiens, read-out: Invasion rates (%) of each drug’s multiple concentrations (μM), 0.01 μM (first column so headed), secondary screening of 87 hit compounds (Table S1)): 93.7%; activity at 0.01 µM (Homo sapiens, read-out: Invasion rates (%) of each drug’s multiple concentrations (μM), 0.01 μM (second column so headed), secondary screening of 87 hit compounds (Table S1)): 98.2%; activity at 0.1 µM (Homo sapiens, read-out: Invasion rates (%) of each drug’s multiple concentrations (μM), 0.1 μM, secondary screening of 87 hit compounds (Table S1)): 85%; activity at 1 µM (Homo sapiens, read-out: Invasion rates (%) of each drug’s multiple concentrations (μM), 1 μM, secondary screening of 87 hit compounds (Table S1)): 89.9%; activity at 10 µM (Homo sapiens, read-out: Invasion rates (%) of each drug’s multiple concentrations (μM), 10 μM, secondary screening of 87 hit compounds (Table S1)): 85.1% |
| Cc1ncc([N+](=O)[O-])n1CC(O)CN1CCOCC1 (single isomer, unassigned) [Morinidazole (R enantiomer)] |  |  |  |  |  | Invasion rates (%) of each drug’s multiple concentrations (μM) [11]: 90.71%; Invasion rates (%) of each drug’s multiple concentrations (μM) [16]: 95.71%; Invasion rates (%) of each drug’s multiple concentrations (μM) [12]: 98.08%; Invasion rates (%) of each drug’s multiple concentrations (μM) [17]: 97.64%; Invasion rates (%) of each drug’s multiple concentrations (μM) [13]: 89.69%; Invasion rates (%) of each drug’s multiple concentrations (μM) [18]: 94.21%; Invasion rates (%) of each drug’s multiple concentrations (μM) [14]: 10.13%; Invasion rates (%) of each drug’s multiple concentrations (μM) [19]: 6.21%; Invasion rates (%) of each drug’s multiple concentrations (μM) [15]: 2.86%; Invasion rates (%) of each drug’s multiple concentrations (μM) [20]: 0.38% |
| COc1ccc2c3c1O[C@H]1C[C@@H](O)C=C[C@@]31CCN(C)C2 [Galanthamine] | 86.8 |  | 88.4 | 83.3 | 15.1 |  |
| COc1cc(Nc2c(C#N)cnc3cc(OCCCN4CCN(C)CC4)c(OC)cc23)c(Cl)cc1Cl [Bosutinib] | 90.7 | 97.2 | 87.3 | 69.9 | 10.1 |  |
| COc1cc2ncnc(Nc3ccc(F)c(Cl)c3)c2cc1OCCCN1CCOCC1 [Gefitinib] | 86.8 | 85.3 | 77.8 | 60.2 | 27.4 |  |
| Cn1c([N+](=O)[O-])cnc1COC(N)=O [Ronidazole] | 64.2 | 67.3 | 27.6 | 5.96 | 5.14 | activity at 0.01 µM [6]: 81.8%; activity at 0.01 µM [7]: 87.5%; activity at 0.1 µM [8]: 5.74%; activity at 1 µM [9]: 3.06%; activity at 10 µM [10]: 2.89%; inhibition at 0.1 µM (Homo sapiens, at 0.1 μM, read-out: inhibition of cell invasion): > 50% |
| CC1CS(=O)(=O)CCN1/N=C/c1ccc([N+](=O)[O-])o1 (stereo not shown) [Nifurtimox] | 96.2 | 96.2 | 78.6 | 32.4 | 1.95 | activity at 0.01 µM [6]: 97%; activity at 0.01 µM [7]: 97.5%; activity at 0.1 µM [8]: 93.5%; activity at 1 µM [9]: 5.05%; activity at 10 µM [10]: 0.53% |
| C=CC(=O)Nc1cc(Nc2nccc(-c3cn(C)c4ccccc34)n2)c(OC)cc1N(C)CCN(C)C [Osimertinib] | 89 | 98.8 | 86.4 | 83.8 | 5.6 |  |
| CCO[C@H]1O[C@@H]2O[C@@]3(C)CC[C@H]4[C@H](C)CC[C@@H]([C@H]1C)[C@@]24OO3 [Artemotil] | 96.2 | 95.5 | 90.7 | 85.7 | 0.51 |  |
| CC(=O)NC[C@H]1CN(c2ccc(N3CCOCC3)c(F)c2)C(=O)O1 [Linezolid] | 94.4 | 96.6 | 80 | 64.5 | 3.51 |  |
| COc1cc([C@@H]2c3cc4c(cc3[C@@H](O[C@@H]3O[C@@H]5CO[C@@H](c6cccs6)O[C@H]5[C@H](O)[C@H]3O)[C@H]3COC(=O)[C@H]23)OCO4)cc(OC)c1O [Teniposide] | 93.1 | 91.8 | 85 | 77.2 | 3.21 |  |
| Cc1nc(Nc2ncc(C(=O)Nc3c(C)cccc3Cl)s2)cc(N2CCN(CCO)CC2)n1.Cl [Dasatinib (hydrochloride)] |  |  |  |  |  | Invasion rates (%) of each drug’s multiple concentrations (μM) [11]: 54.32%; Invasion rates (%) of each drug’s multiple concentrations (μM) [16]: 99.47%; Invasion rates (%) of each drug’s multiple concentrations (μM) [12]: 60.68%; Invasion rates (%) of each drug’s multiple concentrations (μM) [17]: 101.09%; Invasion rates (%) of each drug’s multiple concentrations (μM) [13]: 53.75%; Invasion rates (%) of each drug’s multiple concentrations (μM) [18]: 92.00%; Invasion rates (%) of each drug’s multiple concentrations (μM) [14]: 49.82%; Invasion rates (%) of each drug’s multiple concentrations (μM) [19]: 87.73%; Invasion rates (%) of each drug’s multiple concentrations (μM) [15]: 38.63%; Invasion rates (%) of each drug’s multiple concentrations (μM) [20]: 56.83% |
| C[C@H]1c2cccc(O)c2C(O)=C2C(=O)[C@]3(O)C(O)=C(C(N)=O)C(=O)[C@@H](N(C)C)[C@@H]3[C@@H](O)[C@@H]21 [Doxycycline (hyclate)] |  |  |  |  |  | Invasion rates (%) of each drug’s multiple concentrations (μM) [11]: 91.64%; Invasion rates (%) of each drug’s multiple concentrations (μM) [16]: 101.94%; Invasion rates (%) of each drug’s multiple concentrations (μM) [12]: 100.52%; Invasion rates (%) of each drug’s multiple concentrations (μM) [17]: 98.24%; Invasion rates (%) of each drug’s multiple concentrations (μM) [13]: 74.92%; Invasion rates (%) of each drug’s multiple concentrations (μM) [18]: 93.64%; Invasion rates (%) of each drug’s multiple concentrations (μM) [14]: 3.13%; Invasion rates (%) of each drug’s multiple concentrations (μM) [19]: 5.76%; Invasion rates (%) of each drug’s multiple concentrations (μM) [15]: 1.59%; Invasion rates (%) of each drug’s multiple concentrations (μM) [20]: 1.58% |
